Key:
[1] = system: diamond back moth (Plutella xylostella); format: in vivo; conditions: 1,000 ppm; Chinese cabbage seedling with eggs immersed about 30 seconds; counted six days after the immersion; 25° C.
Excerpt: Insecticidal effect on diamond back moth (Plutella xylostella)
Adult diamond back moths were released and allowed to oviposit on a Chinese cabbage seedling. […] Six days after the immersion, the hatched insects were counted. […] [formula] Criterion • A - - - Mortality 100% • B - - - Mortality 99-90% • C - - - Mortality 89-80% • D - - - Mortality 79-50%

[2] = system: Common cutworm (Spodoptera litura); format: in vivo; conditions: 500 ppm; cabbage leaf immersed about 30 seconds; second-instar larvae; eight days after the inoculation; 25° C.
Excerpt: Insecticidal Effect on Common cutworm (Spodoptera litura)

[3] = system: rice leafroller (Cnaphalocrosis medinalis); conditions: 500 ppm; rice lamina immersed about 30 seconds; third-instar larvae; four days after the inoculation; 25° C., humidity 70%
Description: Insecticidal effect on rice leafroller (Cnaphalocrosis medinalis)
After air-dryness, the lamina was placed in a plastic Petri dish with a diameter of 9 cm whose bottom had been covered with a wetted filter paper. The lamina was inoculated with third-instar larvae of rice leafroller, after which the dish was allowed to stand in a room thermostatted at 25° C. and having a humidity of 70%. Four days after the inoculation, the dead and alive were counted and the insecticidal effect was judged according to the criterion shown in Test Example 1. The test was carried out with triplicate groups of 10 insects.

Measured: insecticidal effect (activity ranking by mortality)

CCN(CC)C(=O)c1c(I)cccc1C(=O)Nc1ccc(C(F)(F)C(F)(F)C(F)(F)F)nc1Cl [Q27-129]
B or higher: all assays above

CCN(CC)C(=O)c1c(I)cccc1C(=O)Nc1ccc(Cl)nc1 [Q27-130]
B or higher: all assays above

CCN(CC)C(=O)c1c(I)cccc1C(=O)Nc1ccc(C(F)(F)C(F)(F)C(F)(F)F)nc1 [Q27-131]
B or higher: all assays above

CCN(CC)C(=O)c1c(I)cccc1C(=O)Nc1ccc(Oc2ccc(Br)cc2)nc1 [Q27-132]
B or higher: all assays above

CC(C)NC(=O)c1c(I)cccc1C(=O)Nc1ccc(Cl)nc1 [Q27-133]
B or higher: all assays above

CC(C)NC(=O)c1c(I)cccc1C(=O)Nc1ccc(C(F)(F)C(F)(F)F)nc1 [Q27-134]
B or higher: all assays above

CC(C)NC(=O)c1c(I)cccc1C(=O)Nc1ccc(C(F)(F)C(F)(F)C(F)(F)F)nc1 [Q27-135]
B or higher: all assays above

CC(C)NC(=O)c1c(I)cccc1C(=O)Nc1ccc(C(F)(C(F)(F)F)C(F)(F)F)nc1 [Q27-136]
B or higher: all assays above

Cc1cc(C(F)(C(F)(F)F)C(F)(F)F)ncc1NC(=O)c1cccc(I)c1C(=O)NC(C)C [Q27-137]
B or higher: all assays above

Cc1nc(C(F)(C(F)(F)F)C(F)(F)F)ccc1NC(=O)c1cccc(I)c1C(=O)NC(C)C [Q27-138]
B or higher: all assays above

CC(C)(C)NC(=O)c1c(I)cccc1C(=O)Nc1ccc(C(F)(C(F)(F)F)C(F)(F)F)nc1 [Q27-139]
B or higher: all assays above

CC(C)(C)NC(=O)c1c(I)cccc1C(=O)Nc1ccc(C(F)(F)C(F)(F)F)nc1 [Q27-140]
B or higher: all assays above

CC(C)(C)NC(=O)c1c(I)cccc1C(=O)Nc1ccc(C(F)(F)C(F)(F)C(F)(F)F)nc1 [Q27-141]
B or higher: all assays above

Cc1cc(C(F)(C(F)(F)F)C(F)(F)F)ncc1NC(=O)c1cccc(I)c1C(=O)NC(C)(C)C [Q27-142]
B or higher: all assays above

Cc1nc(C(F)(C(F)(F)F)C(F)(F)F)ccc1NC(=O)c1cccc(I)c1C(=O)NC(C)(C)C [Q27-143]
B or higher: all assays above

CSCC(C)NC(=O)c1c(I)cccc1C(=O)Nc1cnc(C(F)(C(F)(F)F)C(F)(F)F)cc1C (stereo not drawn) [Q27-144, N^1-(4-methyl-2-heptafluoroisopropyl-pyridin-5-yl)-N^2-(1-methyl-2-methylthioethyl),-3-iodophthalamide]
B or higher: all assays above

CSCC(C)NC(=O)c1c(I)cccc1C(=O)Nc1ccc(C(F)(C(F)(F)F)C(F)(F)F)nc1C (stereo not drawn) [Q27-145]
B or higher: all assays above

CC(C)NC(=O)c1c(C(=O)Nc2cccnc2)cccc1[N+](=O)[O-] [Q27-164]
B or higher: all assays above

From patent US6875768B1, “Phthalamide derivatives, intermediates in the production thereof, and agricultural/horticultural insecticides and method for using the same” (Nihon Nohyako Co., Ltd., priority 1999, dated 2005)
